The subject of assay [1] is prostacyclin (PGI2) plasma level. Nature of the assay: in vivo plasma prostacyclin (6-keto-PGF1 α) in rats after ionophore A23187. The conditions noted are these: oral, at 0.20 mg/kg or a higher dose. The method, then:
(§1) The inhibition of the synthesis and the reduction of plasma levels of thromboxane is determined in vivo on administration to rats in the following manner (as adapted from the procedures described by Tai et al. in Anal. Biochem. 87:343, 1978 and by Salmon in Prostaglandins 15:383, 1978):
(§2) Rats are dosed with vehicle or test drug and injected intravenously with inophore A23187 (0.5 mg/kg) two hours later. Blood is collected for analysis 2 minutes after the ionophore injection. A single aliquot of each plasma sample is assayed for thromboxane B2 and another aliquot for 6-keto-PGF1 α, the stable metabolites of thromboxane A2 and prostacyclin (PGI2) respectively, by radioimmunoassay.

Assay [2] relates to thromboxane B2 plasma level. Nature of the assay: in vivo reduction of plasma thromboxane B2 in rats after ionophore A23187. The conditions noted are these: oral dose as low as 0.20 mg/kg. The method, then: as §1, §2
In assay [3] the target is T1, thromboxane synthetase from lysed human platelets (Homo sapiens, UniProt P24557).
T1 construct: crude microsomal preparation of thromboxane synthetase from lysed human platelets; from tissue; host or cells: human platelets (lysed), crude microsomal preparation
T1 sequence (P24557 1-533): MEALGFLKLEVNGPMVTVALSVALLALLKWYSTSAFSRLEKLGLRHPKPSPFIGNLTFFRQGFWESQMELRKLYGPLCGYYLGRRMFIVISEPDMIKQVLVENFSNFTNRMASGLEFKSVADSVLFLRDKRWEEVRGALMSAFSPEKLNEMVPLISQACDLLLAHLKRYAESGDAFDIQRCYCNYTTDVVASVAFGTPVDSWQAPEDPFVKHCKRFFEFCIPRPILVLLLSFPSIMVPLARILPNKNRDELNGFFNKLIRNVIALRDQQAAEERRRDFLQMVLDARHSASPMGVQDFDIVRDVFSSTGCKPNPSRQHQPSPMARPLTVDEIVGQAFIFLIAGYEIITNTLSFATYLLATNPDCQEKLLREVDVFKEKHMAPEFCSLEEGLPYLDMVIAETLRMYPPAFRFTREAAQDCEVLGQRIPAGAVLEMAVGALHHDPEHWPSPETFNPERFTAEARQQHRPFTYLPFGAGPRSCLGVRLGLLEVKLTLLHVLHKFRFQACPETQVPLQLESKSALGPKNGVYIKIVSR
Nature of the assay: in vitro inhibition of thromboxane synthetase (14C-arachidonic acid, TxB2/PGF2 α+β ratio). In kind it is biochemical. As to conditions: concentration at which ratio TxB2/PGF2 α+β is reduced to 50% of control; 30 minutes incubation. How it is done: Res. Comm. 74, 1432 (1977); the testing procedure is as follows:
^14 C-Arachidonic acid is incubated with an enzyme mixture preparation consisting of solubilized and partially purified prostaglandin cyclo-oxygenase from sheep seminal vesicles and a crude microsomal preparation of thromboxane synthetase from lysed human platelets. The test compound (dissolved in buffer, or if necessary, in a small amount of ethanol) is added to the incubation medium. At the end of the incubation period (30 minutes), Prostaglandin E2 (PGE2) is reduced to a mixture of Prostaglandin F2 α and F2 β (PGF2 α+β) by addition of sodium borohydride. The radioactive products and excess substrate are extracted into ethyl acetate; the extract is evaporated to dryness; the residue is dissolved in acetone, spotted on thin-layer plates and chromatographed in the solvent system toluene:acetone:glacial acetic acid (100 volumes:100 volumes:3 volumes). The radioactive zones are located; those corresponding to Thromboxane B2 (T×B2) and PGF2 α+β are transferred to liquid scintillation vials and counted. The ratio of counts for T×B2 /PGF2 α+β is calculated for each concentration of test compound and IC50 values are determined graphically as the concentration of test compound at which the ratio of T×B2 /PGF2 α+β is reduced to 50% of the control value.

The values that follow come from patent US4539410A, “N-Substituted-2-(1-imidazolyl)indoles” (priority 1983, dated 1985).

On to `Cc1c(-n2ccnc2)n(CCCCCC(=O)O)c2ccccc12.Cl` [Example 3, 1-(5-carboxypentyl)-2-(1-imidazolyl)-3-methylindole hydrochloride], for which the “plasma level of prostacyclin” value in assay [1] is given as “increase in the plasma level of prostacyclin occurs”. Also, the “decrease of the plasma concentration of thromboxane B2” value in assay [2] is listed as “over 50%”. Moreover, the IC50 in assay [3] worked out at 2.3 nM.
